Our source for the IC50 and EC50 values is ChEMBL document CHEMBL1125527, “Disodium (R,R)-5-[2-[[2-(3-chlorophenyl)-2-hydroxyethyl]-amino] propyl]-1,3-benzodioxole-2,2-dicarboxylate (CL 316,243). A potent beta-adrenergic agonist virtually specific for beta 3 receptors. A promising antidiabetic and antiobesity agent” (J Med Chem, 1992).

Experiment [1] addresses T1, Beta-2 adrenergic receptor (Rattus norvegicus, UniProt P10608).
Description: In vitro beta-adrenergic activity against beta-1 adrenergic receptor by the inhibition of insulin stimulated [14C]- glucose incorporation into glycogen in isolated rat soleus muscle
Experiment [2] concerns the target T1, Beta-2 adrenergic receptor. The experiment in a line: Compound was evaluated for its binding affinity towards Beta-2 adrenergic receptor in rat soleus membrane by displacing […]. It counts as cell membranes.
The target in experiment [3] is Beta-3 adrenergic receptor (Rattus norvegicus, UniProt P26255). Briefly: In vitro beta-adrenergic activity against beta-3 adrenergic receptor in rat epididymal fat pads by stimulation of glycerol release from adipocytes. It is filed as functional, tissue-based, Epididymal fat pad.
Beta-3 adrenergic receptor, sequence (P26255 whole entry): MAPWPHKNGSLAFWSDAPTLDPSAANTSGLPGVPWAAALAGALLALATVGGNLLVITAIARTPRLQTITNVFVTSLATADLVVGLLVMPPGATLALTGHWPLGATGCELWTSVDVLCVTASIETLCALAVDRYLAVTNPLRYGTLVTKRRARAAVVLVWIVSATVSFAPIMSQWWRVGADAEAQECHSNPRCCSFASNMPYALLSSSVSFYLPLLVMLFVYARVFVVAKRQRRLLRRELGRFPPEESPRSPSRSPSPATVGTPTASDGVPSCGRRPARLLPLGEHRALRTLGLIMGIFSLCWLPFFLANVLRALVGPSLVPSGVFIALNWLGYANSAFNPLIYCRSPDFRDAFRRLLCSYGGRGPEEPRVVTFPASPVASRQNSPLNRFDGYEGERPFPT
Experiment [4] has as its target Beta-1 adrenergic receptor (Rattus norvegicus, UniProt P18090). Briefly: Compound was evaluated for its binding affinity towards Beta-1 adrenergic receptor in rat heart membrane by displacing [125I]- iodocyanopindolol. It is filed as cell membranes.

What is called IC50 is the midpoint of a concentration-inhibition curve. A low value points to inhibition by little substance. As usually defined, the EC50 is the concentration needed to bring the measured effect to its halfway point. Read a low EC50 as a more potent agent.

T1 sequence (P10608 whole entry): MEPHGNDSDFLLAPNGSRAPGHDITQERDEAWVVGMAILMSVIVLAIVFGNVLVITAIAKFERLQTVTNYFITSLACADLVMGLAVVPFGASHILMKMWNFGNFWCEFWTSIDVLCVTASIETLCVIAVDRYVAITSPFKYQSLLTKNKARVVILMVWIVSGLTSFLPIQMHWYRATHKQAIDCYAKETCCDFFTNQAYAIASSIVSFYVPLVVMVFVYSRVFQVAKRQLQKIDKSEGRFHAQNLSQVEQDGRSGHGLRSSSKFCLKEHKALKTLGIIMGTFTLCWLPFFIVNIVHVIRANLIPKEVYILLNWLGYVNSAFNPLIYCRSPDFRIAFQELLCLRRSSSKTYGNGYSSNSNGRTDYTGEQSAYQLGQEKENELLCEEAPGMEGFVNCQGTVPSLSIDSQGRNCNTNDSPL
Beta-1 adrenergic receptor, sequence (P18090 whole entry): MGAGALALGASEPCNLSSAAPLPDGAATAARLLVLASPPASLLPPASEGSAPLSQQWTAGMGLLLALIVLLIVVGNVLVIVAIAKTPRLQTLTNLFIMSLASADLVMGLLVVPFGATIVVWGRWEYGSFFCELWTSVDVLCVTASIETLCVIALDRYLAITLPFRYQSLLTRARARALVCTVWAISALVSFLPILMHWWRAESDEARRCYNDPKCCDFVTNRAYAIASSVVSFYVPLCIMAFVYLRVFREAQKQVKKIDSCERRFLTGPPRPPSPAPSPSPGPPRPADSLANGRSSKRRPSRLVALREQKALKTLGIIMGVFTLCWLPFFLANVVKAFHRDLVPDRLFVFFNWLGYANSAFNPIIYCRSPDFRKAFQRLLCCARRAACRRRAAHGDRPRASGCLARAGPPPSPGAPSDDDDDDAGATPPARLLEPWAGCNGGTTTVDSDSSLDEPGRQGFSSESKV

On to `COC(=O)COc1ccc(C[C@@H](C)NC[C@H](O)c2cccc(Cl)c2)cc1`, for which the IC50 came to 500 nM in experiment [1], 30 nM in experiment [2] and 59 nM in experiment [4]. The EC50 in experiment [3] was found to be 16 nM.

On to `C[C@H](Cc1ccc(OCC(=O)O)cc1)NC[C@H](O)c1cccc(Cl)c1`, for which the IC50 in experiment [1] came to 190 nM; in experiment [2] it was 1300 nM.
